The values below come from PubChem BioAssay (NCI).

Some test systems named below: MALME-3M melanoma; SK-OV-3 ovarian; HL-60(TB) leukemia; MDA-MB-231 breast; LOX IMVI melanoma; KM12 colon; NCI-H460 lung; T-47D breast; RXF 393 renal; UACC-257 melanoma.
What all share (assay): NCI tumour cell line growth inhibition, 48 h

Where “and” joins values, the source holds several entries; their conditions need not be identical. Equal entries are not always repeated.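 1) Cells in 96-well plates. 2) Compound, 48 h, 5 concentrations. 3) Linear interpolation between surrounding doses. 4) Unreached endpoint = highest concentration. The concentration for 50% growth inhibition is given as GI50. TGI: concentration producing complete growth inhibition.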 Bounds are passed on as bounds.

Take `COC(=O)/C=C/c1cn(C(C)=O)c2ccc(Br)cc12`: the GI50 was 24.9 µM in the test on MALME-3M melanoma; 32.4 µM in the test with SK-OV-3 ovarian; 15.3 µM with HL-60(TB) leukemia; 11.8 µM in the test with MDA-MB-231 breast; 17.9 µM in the test with LOX IMVI melanoma; 25.3 µM in the test with KM12 colon. In addition, the GI50 in the test on NCI-H460 lung was 34.6 µM; in the test on T-47D breast, 23.4 µM; with RXF 393 renal it was 26.9 µM; in the test with UACC-257 melanoma it was 35.6 µM. In addition, the TGI was above 88.8 µM with MALME-3M melanoma; above 100 µM with SK-OV-3 ovarian; above 100 µM in the test with HL-60(TB) leukemia; 29.5 µM in the test on MDA-MB-231 breast; above 77.9 µM with LOX IMVI melanoma; 79.5 µM with KM12 colon. Besides, the TGI in the test with NCI-H460 lung, in the test with T-47D breast, in the test with RXF 393 renal and with UACC-257 melanoma was above 100 µM throughout.

As for `Nc1c(C(=O)c2ccc(CCCN3CCOCC3)cc2)cnn1-c1ccc(F)cc1`, the GI50 in the test on MALME-3M melanoma, in the test with SK-OV-3 ovarian, in the test with HL-60(TB) leukemia, in the test with MDA-MB-231 breast, in the test with LOX IMVI melanoma and with KM12 colon was above 25 µM each time. Moreover, the GI50 in the test on NCI-H460 lung was above 25 µM; in the test on T-47D breast it was 10.3 µM; with RXF 393 renal, above 25 µM; with UACC-257 melanoma, 24.3 µM. Also, the TGI in the test on MALME-3M melanoma, in the test with SK-OV-3 ovarian, with HL-60(TB) leukemia, in the test on MDA-MB-231 breast, with LOX IMVI melanoma and with KM12 colon was above 25 µM in each case. Further, the TGI in the test with NCI-H460 lung, with T-47D breast, in the test on RXF 393 renal and in the test with UACC-257 melanoma was above 25 µM each time.

As for `C/C(=C(\c1ccc(OCCN2CCCCCC2)cc1)c1ccc(OC(=O)Cc2ccccc2)cc1)c1ccc(Cl)cc1`, the GI50 in the test with MALME-3M melanoma is 2.86 µM; with SK-OV-3 ovarian it was 4.87 µM; in the test on HL-60(TB) leukemia it was 3.5 µM; in the test with MDA-MB-231 breast it was 3.04 µM; in the test on LOX IMVI melanoma it was 2.51 µM; in the test with KM12 colon it was 2.72 µM. Also, the GI50 with NCI-H460 lung was 2.64 µM; in the test on T-47D breast it was 1.95 µM; in the test with RXF 393 renal it was 2.03 µM; in the test with UACC-257 melanoma it was 3.25 µM. Further, the TGI in the test on MALME-3M melanoma was 5.71 µM; in the test with SK-OV-3 ovarian, 15.6 µM; with HL-60(TB) leukemia, 8.17 µM; in the test on MDA-MB-231 breast, 5.69 µM; in the test with LOX IMVI melanoma, 4.77 µM; in the test with KM12 colon, 5.77 µM. In addition, the TGI in the test with NCI-H460 lung is 5.2 µM; with T-47D breast, 6.42 µM; in the test with RXF 393 renal, 4.45 µM; in the test with UACC-257 melanoma it was 6.22 µM.

Take `COc1cc(O)c2c(c1)C(=O)c1cc3c(c(O)c1C2=O)C(OC1OC(C)C(O)C(O)C1OC)C(OC)C(C)(O)C3=O` (stereo unspecified): the TGI in the test with MALME-3M melanoma is 2.54 µM and 2.65 µM; in the test with SK-OV-3 ovarian, 52 µM and 34.8 µM; in the test with HL-60(TB) leukemia, 17.6 µM and 24.3 µM; in the test with MDA-MB-231 breast, 9.2 µM; in the test on LOX IMVI melanoma, 4.91 µM and 7.1 µM; with KM12 colon it was 17.9 µM and 7.92 µM. The TGI is 4.54 µM and 4.77 µM with NCI-H460 lung; 9.21 µM in the test with T-47D breast; 6.72 µM and 4.38 µM with RXF 393 renal; 5.25 µM and 2.5 µM in the test with UACC-257 melanoma. Moreover, the GI50 in the test on SK-OV-3 ovarian is 5.2 µM; in the test with HL-60(TB) leukemia, 3.44 µM and 6.26 µM; in the test with MDA-MB-231 breast, 2.66 µM; with LOX IMVI melanoma, 1.67 µM; with KM12 colon, 3.11 µM and 2.33 µM; in the test on NCI-H460 lung, 1.27 µM. In addition, the figures for the GI50 in the test on T-47D breast, with RXF 393 renal and in the test with UACC-257 melanoma were 3.12 µM, 1.01 µM and 1.98 µM, respectively.

Turning to `N#CC1=C(N)NC(=S)NC12Nc1ccccc1N2`, the GI50 in the test with MALME-3M melanoma was 13.5 µM; in the test with SK-OV-3 ovarian, 61 µM; with HL-60(TB) leukemia, 20.8 µM; in the test with MDA-MB-231 breast, above 100 µM; in the test on LOX IMVI melanoma, 80.1 µM; in the test on KM12 colon, 23.6 µM. In addition, the GI50 with NCI-H460 lung was 28.7 µM; in the test with T-47D breast, 69.7 µM; with RXF 393 renal, above 100 µM; in the test with UACC-257 melanoma, above 100 µM. Further, the TGI was 69.2 µM in the test on MALME-3M melanoma; above 100 µM in the test on SK-OV-3 ovarian; above 100 µM in the test with HL-60(TB) leukemia; above 100 µM in the test on MDA-MB-231 breast; above 100 µM in the test on LOX IMVI melanoma; above 100 µM with KM12 colon. Further, the TGI in the test with NCI-H460 lung, with T-47D breast, in the test with RXF 393 renal and with UACC-257 melanoma was above 100 µM throughout.

For the compound `COc1cc(OC)c(NC(=O)c2cc3ccccc3cc2O)cc1Cl`, the GI50 was 1.89 µM in the test with MALME-3M melanoma; 1.91 µM with HL-60(TB) leukemia; 1.78 µM in the test with MDA-MB-231 breast; 2.69 µM in the test with LOX IMVI melanoma; 3.07 µM with KM12 colon; 2.43 µM in the test on NCI-H460 lung. Also, the values for the GI50 with T-47D breast and in the test on RXF 393 renal were 2.29 µM and 3.82 µM, respectively. Moreover, the TGI turned out to be 6.04 µM with MALME-3M melanoma; 7.99 µM with HL-60(TB) leukemia; 4.78 µM in the test with MDA-MB-231 breast; 9.37 µM in the test with LOX IMVI melanoma; 11.4 µM with KM12 colon; 5.82 µM in the test on NCI-H460 lung. Moreover, the TGI in the test with T-47D breast was above 100 µM; with RXF 393 renal, 8.51 µM.

In the case of `O=C(NCc1ccco1)c1ccc(NC2=C(Cl)C(=O)N(Cc3ccccc3)C2=O)cc1`, the GI50 in the test with SK-OV-3 ovarian was 53.2 µM; in the test with HL-60(TB) leukemia it was 17.4 µM; in the test with MDA-MB-231 breast, 24 µM; in the test on LOX IMVI melanoma it was above 100 µM; in the test on KM12 colon it was 17.2 µM; with NCI-H460 lung, 26.7 µM. Besides, the GI50 was 41 µM with T-47D breast, 40.1 µM in the test with RXF 393 renal and 28.9 µM in the test with UACC-257 melanoma. Moreover, the TGI with SK-OV-3 ovarian is above 100 µM; in the test on HL-60(TB) leukemia it was 33.8 µM; in the test with MDA-MB-231 breast, 62.1 µM; in the test on LOX IMVI melanoma it was above 100 µM; with KM12 colon, 36.2 µM; with NCI-H460 lung, above 100 µM. Moreover, the TGI in the test with T-47D breast was above 100 µM; in the test on RXF 393 renal, above 100 µM; in the test on UACC-257 melanoma, 80.8 µM.

For `C=C(CN1CCN(c2cccc(C(F)(F)F)n2)CC1)c1ccc(C(=S)Nc2ccccc2N)cc1`, the GI50 is 2.29 µM with HL-60(TB) leukemia; 2.52 µM with MDA-MB-231 breast; 3.72 µM in the test on LOX IMVI melanoma; 4.04 µM in the test on KM12 colon; 2.99 µM with NCI-H460 lung; 2.26 µM in the test on T-47D breast. The values for the GI50 in the test with RXF 393 renal and in the test with UACC-257 melanoma were 3.74 µM and 3.33 µM, respectively. The TGI in the test on HL-60(TB) leukemia was 5.66 µM; in the test on MDA-MB-231 breast, 8.9 µM; with LOX IMVI melanoma, 17.6 µM; in the test with KM12 colon, above 100 µM; in the test on NCI-H460 lung, 18.8 µM; with T-47D breast, 8.54 µM. For the same compound, the TGI in the test with RXF 393 renal is above 100 µM; with UACC-257 melanoma, 18.8 µM.

For the compound `CC/C(=C(/c1ccc(O)cc1)c1ccc(OCCN2CCCCC2)cc1)c1ccc(OC)cc1`, the GI50 with MALME-3M melanoma is 1.42 µM; with SK-OV-3 ovarian it was 14 µM; in the test on HL-60(TB) leukemia, 1.99 µM; in the test on MDA-MB-231 breast, 1.61 µM; in the test with LOX IMVI melanoma, 1.63 µM; in the test with KM12 colon, 2.63 µM. The GI50 with NCI-H460 lung was 2.17 µM; with T-47D breast, 1.01 µM. Further, the TGI with MALME-3M melanoma worked out at 2.98 µM; with SK-OV-3 ovarian, 27.3 µM; in the test on HL-60(TB) leukemia, 4.1 µM; in the test with MDA-MB-231 breast, 3.84 µM; in the test with LOX IMVI melanoma it was 3.27 µM; in the test on KM12 colon it was 12.2 µM. For the same compound, the TGI in the test with NCI-H460 lung amounted to 4.72 µM; in the test on T-47D breast, 3 µM.

In the case of `COc1ccc(OC)c(-c2cc(=O)c3c(OC)c(OC)c(OC)c(OC)c3o2)c1`, the TGI in the test with MALME-3M melanoma is above 100 µM; in the test on SK-OV-3 ovarian, 98.7 µM; with HL-60(TB) leukemia, above 100 µM; in the test on MDA-MB-231 breast, above 100 µM; with LOX IMVI melanoma, 76.1 µM; in the test on NCI-H460 lung it was above 100 µM. For the same compound, the figures for the TGI in the test on T-47D breast, in the test with RXF 393 renal and in the test with UACC-257 melanoma were 21.3 µM, 77.7 µM and above 100 µM, respectively.

`C=C(C)[C@@H]1CC[C@]2(CO)CC[C@]3(C)[C@H](CC[C@@H]4[C@@]5(C)CCC(NCCc6ccc(O)cc6)C(C)(C)[C@@H]5CC[C@]43C)[C@@H]12` (stereo partly specified): the GI50 was 1.77 µM in the test on SK-OV-3 ovarian; 1.49 µM in the test with HL-60(TB) leukemia; 1.64 µM in the test on MDA-MB-231 breast; 0.783 µM with LOX IMVI melanoma; 1.64 µM in the test with KM12 colon; 1.53 µM in the test with NCI-H460 lung. The GI50 was 1.51 µM in the test on T-47D breast and 1.73 µM in the test with UACC-257 melanoma. In addition, the TGI with SK-OV-3 ovarian worked out at 3.21 µM; with HL-60(TB) leukemia it was 3.67 µM; with MDA-MB-231 breast, 3.09 µM; in the test with LOX IMVI melanoma, 2.09 µM; in the test with KM12 colon, 3.29 µM; with NCI-H460 lung, 3 µM. Also, the TGI came to 3.19 µM with T-47D breast and 3.37 µM in the test on UACC-257 melanoma.

For the compound `CN(C)CCOC(c1ccccc1)c1ccccc1`, the GI50 in the test on MALME-3M melanoma was 25.2 µM; with SK-OV-3 ovarian it was 40.6 µM; with MDA-MB-231 breast, 15.6 µM; in the test with KM12 colon it was 32.8 µM; in the test on NCI-H460 lung, 26.2 µM; in the test on T-47D breast, 31.4 µM. Also, the GI50 in the test on UACC-257 melanoma was 14.2 µM. For the same compound, the TGI is 46 µM and > 100 µM with MALME-3M melanoma; 54.8 µM in the test with SK-OV-3 ovarian; above 100 µM in the test on HL-60(TB) leukemia; 45.2 µM and > 100 µM in the test with MDA-MB-231 breast; above 100 µM in the test on LOX IMVI melanoma; 68.1 µM and > 100 µM with KM12 colon. The TGI was 46 µM and > 100 µM with NCI-H460 lung; 57.2 µM and > 100 µM in the test with T-47D breast; 19.8 µM and > 100 µM in the test with UACC-257 melanoma.
